Reference: PubChem BioAssay AID1963983 (Molecular Pharmacology Branch, DTP, NCI, 2024)

Test system: 186277-243-T-J2-PDC multi-cell spheroid viability
Test: Anticancer human tumor 186277-243-T-J2-PDC patient-derived colon adenocarcinoma cell line growth inhibition [PI3K]
Conditions: for IC50: curve of first compound; for viability, T/C: stronger effect = lower value
In short: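 Tumor cells grown as multi-cell spheroids with HUVEC endothelial cells and MSC fibroblast-like stroma were treated with targeted agents combined with inavolisib, alpelisib, duvelisib or copanlisib. Doses fell in half-log steps from near clinical Cmax, else from 10 microM. Viability was measured.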

[1] = second compound 0.00316 µM, first compound 0.0316 µM
[2] = second compound 0.00316 µM, first compound 0.1 µM
[3] = second compound 0.01 µM, first compound 0.0316 µM
[4] = second compound 0.01 µM, first compound 0.1 µM
[5] = second compound 0.0316 µM, first compound 0.0316 µM
[6] = second compound 0.0316 µM, first compound 0.1 µM
[7] = second compound 0.1 µM, first compound 0.0316 µM
[8] = second compound 0.1 µM, first compound 0.1 µM
[9] = second compound 0.316 µM, first compound 0.0316 µM
[10] = second compound 0.316 µM, first compound 0.1 µM
[11] = second compound 1 µM, first compound 0.0316 µM
[12] = second compound 1 µM, first compound 0.1 µM
[13] = second compound 0.0316 µM, first compound 0.000316 µM
[14] = second compound 0.0316 µM, first compound 0.001 µM
[15] = second compound 0.0316 µM, first compound 0.00316 µM
[16] = second compound 0.0316 µM, first compound 0.01 µM
[17] = second compound 0.1 µM, first compound 0.000316 µM
[18] = second compound 0.1 µM, first compound 0.001 µM
[19] = second compound 0.1 µM, first compound 0.00316 µM
[20] = second compound 0.1 µM, first compound 0.01 µM
[21] = second compound 0.316 µM, first compound 0.000316 µM
[22] = second compound 0.316 µM, first compound 0.001 µM
[23] = second compound 0.316 µM, first compound 0.00316 µM
[24] = second compound 0.316 µM, first compound 0.01 µM
[25] = second compound 1 µM, first compound 0.000316 µM
[26] = second compound 1 µM, first compound 0.001 µM
[27] = second compound 1 µM, first compound 0.00316 µM
[28] = second compound 1 µM, first compound 0.01 µM
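Also: spheroids exposed to compounds for seven days before viability reading.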
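For viability, T/C in this document: 100% = DMSO vehicle control viability.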

Compound: C=CC(=O)N1CCN(c2nc(=O)n(-c3c(C)ccnc3C(C)C)c3nc(-c4c(O)cccc4F)c(F)cc23)C(C)C1 (stereo unspecified) + CC(Nc1ccc2c(c1)OCCn1cc(N3C(=O)OCC3C(F)F)nc1-2)C(N)=O
- IC50 (second compound 0.00316 µM): > 10000 nM
- IC50 (second compound 0.01 µM): > 10000 nM
- IC50 (second compound 0.0316 µM): > 10000 nM
- IC50 (second compound 0.1 µM): > 10000 nM
- IC50 (second compound 0.316 µM): 4990 nM
- IC50 (second compound 1 µM): < 31.6 nM
- viability, T/C [1]: 109%
- viability, T/C [2]: 88.5%
- viability, T/C (second compound 0.00316 µM, first compound 0.316 µM): 94.7%
- viability, T/C (second compound 0.00316 µM, first compound 1 µM): 94.9%
- viability, T/C (second compound 0.00316 µM, first compound 3.16 µM): 109%
- viability, T/C (second compound 0.00316 µM, first compound 10 µM): 93.9%
- viability, T/C [3]: 103%
- viability, T/C [4]: 99.4%
- viability, T/C (second compound 0.01 µM, first compound 0.316 µM): 107%
- viability, T/C (second compound 0.01 µM, first compound 1 µM): 101%
- viability, T/C (second compound 0.01 µM, first compound 3.16 µM): 103%
- viability, T/C (second compound 0.01 µM, first compound 10 µM): 102%
- viability, T/C [5]: 104%
- viability, T/C [6]: 102%
- viability, T/C (second compound 0.0316 µM, first compound 0.316 µM): 105%
- viability, T/C (second compound 0.0316 µM, first compound 1 µM): 112%
- viability, T/C (second compound 0.0316 µM, first compound 3.16 µM): 115%
- viability, T/C (second compound 0.0316 µM, first compound 10 µM): 87.2%
- viability, T/C [7]: 103%
- viability, T/C [8]: 107%
- viability, T/C (second compound 0.1 µM, first compound 0.316 µM): 88.3%
- viability, T/C (second compound 0.1 µM, first compound 1 µM): 94.4%
- viability, T/C (second compound 0.1 µM, first compound 3.16 µM): 86.6%
- viability, T/C (second compound 0.1 µM, first compound 10 µM): 74.4%
- viability, T/C [9]: 82.2%
- viability, T/C [10]: 74.8%
- viability, T/C (second compound 0.316 µM, first compound 0.316 µM): 67.7%
- viability, T/C (second compound 0.316 µM, first compound 1 µM): 74.7%
- viability, T/C (second compound 0.316 µM, first compound 3.16 µM): 56.9%
- viability, T/C (second compound 0.316 µM, first compound 10 µM): 37.4%
- viability, T/C [11]: 48.2%
- viability, T/C [12]: 50.1%
- viability, T/C (second compound 1 µM, first compound 0.316 µM): 50.9%
- viability, T/C (second compound 1 µM, first compound 1 µM): 48.1%
- viability, T/C (second compound 1 µM, first compound 3.16 µM): 32.8%
- viability, T/C (second compound 1 µM, first compound 10 µM): 22.9%

Compound: CC(C)n1nc(-c2ccc3oc(N)nc3c2)c2c(N)ncnc21 + Cc1nc(NC(=O)N2CCCC2C(N)=O)sc1-c1ccnc(C(C)(C)C(F)(F)F)c1
- IC50 (second compound 0.0316 µM): 53.1 nM
- IC50 (second compound 0.1 µM): 52.6 nM
- IC50 (second compound 0.316 µM): 38 nM
- IC50 (second compound 1 µM): 24.5 nM
- IC50 (second compound 3.16 µM): 2.04 nM
- IC50 (second compound 10 µM): < 0.316 nM
- viability, T/C [13]: 106%
- viability, T/C [14]: 90.3%
- viability, T/C [15]: 101%
- viability, T/C [16]: 101%
- viability, T/C [5]: 73.5%
- viability, T/C [6]: 21.5%
- viability, T/C [17]: 101%
- viability, T/C [18]: 107%
- viability, T/C [19]: 99.1%
- viability, T/C [20]: 87.1%
- viability, T/C [7]: 72.1%
- viability, T/C [8]: 24.1%
- viability, T/C [21]: 114%
- viability, T/C [22]: 107%
- viability, T/C [23]: 79.9%
- viability, T/C [24]: 82.4%
- viability, T/C [9]: 63.7%
- viability, T/C [10]: 14.7%
- viability, T/C [25]: 113%
- viability, T/C [26]: 97.5%
- viability, T/C [27]: 87.7%
- viability, T/C [28]: 76.8%
- viability, T/C [11]: 41%
- viability, T/C [12]: 6.83%
- viability, T/C (second compound 3.16 µM, first compound 0.000316 µM): 62.1%
- viability, T/C (second compound 3.16 µM, first compound 0.001 µM): 56.8%
- viability, T/C (second compound 3.16 µM, first compound 0.00316 µM): 46.2%
- viability, T/C (second compound 3.16 µM, first compound 0.01 µM): 29%
- viability, T/C (second compound 3.16 µM, first compound 0.0316 µM): 14.5%
- viability, T/C (second compound 3.16 µM, first compound 0.1 µM): 3.88%
- viability, T/C (second compound 10 µM, first compound 0.000316 µM): 17.3%
- viability, T/C (second compound 10 µM, first compound 0.001 µM): 16.8%
- viability, T/C (second compound 10 µM, first compound 0.00316 µM): 10.8%
- viability, T/C (second compound 10 µM, first compound 0.01 µM): 13.1%
- viability, T/C (second compound 10 µM, first compound 0.0316 µM): 6.47%
- viability, T/C (second compound 10 µM, first compound 0.1 µM): 2.92%

Compound: Cn1ncnc1[C@H]1c2n[nH]c(=O)c3cc(F)cc(c23)N[C@@H]1c1ccc(F)cc1 + CC(Nc1ccc2c(c1)OCCn1cc(N3C(=O)OCC3C(F)F)nc1-2)C(N)=O
- IC50 (second compound 0.00316 µM): > 100 nM
- IC50 (second compound 0.01 µM): > 100 nM
- IC50 (second compound 0.0316 µM): > 100 nM
- IC50 (second compound 0.1 µM): > 100 nM
- IC50 (second compound 0.316 µM): 46.8 nM
- IC50 (second compound 1 µM): 0.592 nM
- viability, T/C (second compound 0.00316 µM, first compound 0.000316 µM): 93.7%
- viability, T/C (second compound 0.00316 µM, first compound 0.001 µM): 85.8%
- viability, T/C (second compound 0.00316 µM, first compound 0.00316 µM): 105%
- viability, T/C (second compound 0.00316 µM, first compound 0.01 µM): 91%
- viability, T/C [1]: 101%
- viability, T/C [2]: 94.9%
- viability, T/C (second compound 0.01 µM, first compound 0.000316 µM): 101%
- viability, T/C (second compound 0.01 µM, first compound 0.001 µM): 102%
- viability, T/C (second compound 0.01 µM, first compound 0.00316 µM): 104%
- viability, T/C (second compound 0.01 µM, first compound 0.01 µM): 102%
- viability, T/C [3]: 102%
- viability, T/C [4]: 98.6%
- viability, T/C [13]: 117%
- viability, T/C [14]: 107%
- viability, T/C [15]: 101%
- viability, T/C [16]: 97.9%
- viability, T/C [5]: 101%
- viability, T/C [6]: 89%
- viability, T/C [17]: 102%
- viability, T/C [18]: 105%
- viability, T/C [19]: 112%
- viability, T/C [20]: 99.5%
- viability, T/C [7]: 93.5%
- viability, T/C [8]: 69.4%
- viability, T/C [21]: 80.6%
- viability, T/C [22]: 84.4%
- viability, T/C [23]: 65%
- viability, T/C [24]: 64.8%
- viability, T/C [9]: 53.7%
- viability, T/C [10]: 43.3%
- viability, T/C [25]: 52.2%
- viability, T/C [26]: 46.6%
- viability, T/C [27]: 46.9%
- viability, T/C [28]: 39.4%
- viability, T/C [11]: 31.9%
- viability, T/C [12]: 26.6%
